From ChEMBL document CHEMBL1817663, “A synthetic antimicrobial peptidomimetic (LTX 109): stereochemical impact on membrane disruption” (J Med Chem, 2011)
Values after ≈ are worked out from the molar mass of the structure shown.

Key:
Escherichia coli = experiment: Antibacterial activity against Escherichia coli ATCC 25922; format: functional
Pseudomonas aeruginosa = experiment: Antibacterial activity against Pseudomonas aeruginosa ATCC 27853; format: functional
Staphylococcus aureus = experiment: Antibacterial activity against Staphylococcus aureus ATCC 25923; format: functional
[1] = Toxicity in human erythrocytes assessed as hemolytic activity; format: cell-based, Erythrocyte; conditions: read-out: HD50 (the source's name)

## CC(C)(C)c1cc(C(C)(C)C)c2[nH]c(C(C)(C)C)c(C[C@H](NC(=O)[C@H](N)CCCNC(=N)N)C(=O)N[C@@H](CCCNC(=N)N)C(=O)NCCc3ccccc3)c2c1
Escherichia coli
  MIC: 3 µg/mL (≈ 3.81 µM)
Pseudomonas aeruginosa
  MIC: 10 µg/mL (≈ 12.7 µM)
Staphylococcus aureus
  MIC: 2 µg/mL (≈ 2.54 µM)
[1]
  HC50: 175 µg/mL

## CC(C)(C)c1cc(C(C)(C)C)c2[nH]c(C(C)(C)C)c(C[C@@H](NC(=O)[C@@H](N)CCCNC(=N)N)C(=O)N[C@@H](CCCNC(=N)N)C(=O)NCCc3ccccc3)c2c1
Escherichia coli
  MIC: 9 µg/mL (≈ 11.4 µM)
Pseudomonas aeruginosa
  MIC: 30 µg/mL (≈ 38.1 µM)
Staphylococcus aureus
  MIC: 3 µg/mL (≈ 3.81 µM)
[1]
  HC50: 510 µg/mL

## CC(C)(C)c1cc(C(C)(C)C)c2[nH]c(C(C)(C)C)c(C[C@@H](NC(=O)[C@H](N)CCCNC(=N)N)C(=O)N[C@H](CCCNC(=N)N)C(=O)NCCc3ccccc3)c2c1
Escherichia coli
  MIC: 3 µg/mL (≈ 3.81 µM)
Pseudomonas aeruginosa
  MIC: 8 µg/mL (≈ 10.2 µM)
Staphylococcus aureus
  MIC: 3 µg/mL (≈ 3.81 µM)
[1]
  HC50: 120 µg/mL

## CC(C)(C)c1cc(C(C)(C)C)c2[nH]c(C(C)(C)C)c(C[C@@H](NC(=O)[C@H](N)CCCNC(=N)N)C(=O)N[C@@H](CCCNC(=N)N)C(=O)NCCc3ccccc3)c2c1
Escherichia coli
  MIC: 10 µg/mL (≈ 12.7 µM)
Pseudomonas aeruginosa
  MIC: 50 µg/mL (≈ 63.4 µM)
Staphylococcus aureus
  MIC: 4 µg/mL (≈ 5.08 µM)
[1]
  HC50: 605 µg/mL

## CC(C)(C)c1cc(C(C)(C)C)c2[nH]c(C(C)(C)C)c(C[C@@H](NC(=O)[C@@H](N)CCCNC(=N)N)C(=O)N[C@H](CCCNC(=N)N)C(=O)NCCc3ccccc3)c2c1
Escherichia coli
  MIC: 4 µg/mL (≈ 5.08 µM)
Pseudomonas aeruginosa
  MIC: 8 µg/mL (≈ 10.2 µM)
Staphylococcus aureus
  MIC: 2 µg/mL (≈ 2.54 µM)
[1]
  HC50: 135 µg/mL

## CC(C)(C)c1cc(C(C)(C)C)c2[nH]c(C(C)(C)C)c(C[C@H](NC(=O)[C@H](N)CCCNC(=N)N)C(=O)N[C@H](CCCNC(=N)N)C(=O)NCCc3ccccc3)c2c1
Escherichia coli
  MIC: 7 µg/mL (≈ 8.88 µM)
Pseudomonas aeruginosa
  MIC: 50 µg/mL (≈ 63.4 µM)
Staphylococcus aureus
  MIC: 3 µg/mL (≈ 3.81 µM)
[1]
  HC50: 600 µg/mL

## CC(C)(C)c1cc(C(C)(C)C)c2[nH]c(C(C)(C)C)c(C[C@H](NC(=O)[C@@H](N)CCCNC(=N)N)C(=O)N[C@@H](CCCNC(=N)N)C(=O)NCCc3ccccc3)c2c1 [LTX-109]
Escherichia coli
  MIC: 3 µg/mL (≈ 3.81 µM)
Pseudomonas aeruginosa
  MIC: 8 µg/mL (≈ 10.2 µM)
Staphylococcus aureus
  MIC: 2 µg/mL (≈ 2.54 µM)
[1]
  HC50: 175 µg/mL

## CC(C)(C)c1cc(C(C)(C)C)c2[nH]c(C(C)(C)C)c(C[C@H](NC(=O)[C@@H](N)CCCNC(=N)N)C(=O)N[C@H](CCCNC(=N)N)C(=O)NCCc3ccccc3)c2c1
Escherichia coli
  MIC: 10 µg/mL (≈ 12.7 µM)
Pseudomonas aeruginosa
  MIC: 50 µg/mL (≈ 63.4 µM)
Staphylococcus aureus
  MIC: 3 µg/mL (≈ 3.81 µM)
[1]
  HC50: 535 µg/mL
